From PMC12631982, “Expected and Unexpected “Guests” at the Active Site of Human Orotidine 5′-Monophosphate Decarboxylase” (Biochemistry, 2025) come the findings set out here.

The target of experiment [1] is T1, human OMPDC (Homo sapiens, UniProt P11172).
T1 construct: Overexpression of human OMPDC in Escherichia coli; made in house; host or cells: Escherichia coli
Put plainly: Thermodynamic ITC ligand binding to human OMPDC wild-type. The settings on record: for ΔH (first binding phase, K D1) / ΔH (second binding phase, K D2): Sedphat analysis; for binding detected by thermodynamic ITC: 25 °C. The method, then: (§1) Steady-state kinetics of OMPDC conversion and thermodynamics of ligand binding were conducted using a PEAK-ITC instrument (Malvern Panalytical) in 20 mM HEPES/NaOH, pH 7.4, at 25 °C. The substrate OMP trisodium salt and the ligands UMP, GMP, XMP, and TMP were purchased from Sigma-Aldrich (purity >99%).
Isothermal titration calorimetry (ITC) is used to determine the dissociation constant (K D) of a protein–ligand interaction by measuring the heat released or absorbed during binding. In practice, the ligand is sequentially titrated into a solution containing the protein in the reaction cell. As the binding sites become saturated over time, no additional heat changes are detected. The resulting thermogram is then converted into a binding isotherm, which can be used to calculate all relevant thermodynamic parameters. Thereby, the (K D) follows the general reaction, where the enzyme (E), by addition of a ligand (L), forms an enzyme-ligand complex (EL) E+L↔KaEL
The following parameters for the binding experiments were used:
OMPDC with UMP: 195 μM OMPDC, 2.08 mM UMP, buffer (HEPES 0.02 M, pH 7.4), reference power ITC 8 μcal/s, stirring speed 750 rpm, cell temperature 25 °C, one injection of 0.4 μL and 18 injections of 2 μL UMP, 120 s spacing.*
OMPDC with 5-methyl OMP: 195 μM OMPDC, 4.61 mM 5-methyl OMP, buffer (HEPES 0.02 M, pH 7.4), reference power ITC 10 μcal/s, stirring speed 750 rpm, cell temperature 25 °C, 1 injection of 0.4 μL and 18 injections of 2 μL 5-methyl OMP, 120 s spacing.*
OMPDC with dTMP: 186 μM OMPDC, 5 mM dTMP, buffer (HEPES 0.02 M, pH 7.4), reference power ITC 8 μcal/s, stirring speed 750 rpm, cell temperature 25 °C, 1 injection of 0.4 μL and 18 injections of 2 μL dTMP, 120 s spacing.
OMPDC with XMP: 194 μM OMPDC, 1.5 mM XMP, buffer (HEPES 0.02 M, pH 7.4), reference power ITC 8 μcal/s, stirring speed 750 rpm, cell temperature 25 °C, 1 injection of 0.4 μL and 18 injections of 2 μL XMP 120 s spacing.*
OMPDC with YMP: 200 μM OMPDC, 2.03 mM YMP, buffer (HEPES 0.02 M, pH 7.4), reference power ITC 8 μcal/s, stirring speed 750 rpm, cell temperature 25 °C, 1 injection of 0.4 μL and 18 injections of 2 μL YMP, 120 s spacing.
OMPDC with CMP: 200 μM OMPDC, 1.80 mM CMP, buffer (HEPES 0.02 M, pH 7.4), reference power ITC 10 μcal/s, stirring speed 750 rpm, cell temperature 25 °C, 1 injection of 0.4 μL and 18 injections of 2 μL CMP, 120 s spacing.*
OMPDC with 2′-deoxy UMP: 211 μM OMPDC, 9.04 mM 2′-deoxy UMP, buffer (HEPES 0.02 M, pH 7.4), reference power ITC 10 μcal/s, stirring speed 750 rpm, cell temperature 25 °C, 1 injection of 0.4 μL and 18 injections of 2 μL 2′-deoxy UMP, 120 s spacing.
OMPDC with GMP: 184 μM OMPDC, 10 mM GMP, buffer (HEPES 0.02 M, pH 7.4), reference power ITC 8 μcal/s, stirring speed 750 rpm, cell temperature 25 °C, 1 injection of 0.4 μL and 18 injections of 2 μL GMP, 120 s spacing.
(§2) The raw files were analyzed using the software provided by the instrument manufacturer. Marked data sets (*) were integrated using NitPic version 1.2.7 and fitted with Sedphat version 14.0. Final graphs were created with OriginPro 2020.

Experiment [2] deals with T2, OMPDC Thr321Asn (Homo sapiens, UniProt P11172, T321N).
T2 construct: OMPDC Thr321Asn was generated via site-directed mutagenesis; made in house
The experiment is described as follows: Thermodynamic ITC ligand binding to OMPDC variant Thr321Asn. The method, then: as §1
OMPDC T321N′ with dTMP: 211 μM OMPDC T321N′, 2 mM dTMP, buffer (HEPES 0.02 M, pH 7.4), reference power ITC 10 μcal/s, stirring speed 750 rpm, cell temperature 25 °C, 1 injection of 0.4 μL and 18 injections of 2 μL dTMP, 120 s spacing.
as §2

For experiment [3], the target named is T1, human OMPDC. The experiment is described as follows: ITC-based steady-state kinetics / activity assay of OMPDC. The settings on record: wild-type. Format: biochemical. The method, then: as §1
For steady-state kinetic analysis, 20 μM OMPDC and 1 mM OMP were used at a cell temperature of 25 °C. The reference power was set to 8 μcal/s, the stirring power to 750 rpm, and two injections of 10 μL each were performed. For competitive inhibition studies, the substrate concentration remained the same while the ligand concentration was varied. The experiments are summarized below:
OMPDC with OMP and 5-methyl OMP: 70/100 μM OMPDC, 1 mM OMP, 5-methyl OMP (1 mM), buffer (HEPES 0.02 M, pH 7.4), reference power ITC 8 μcal/s, stirring speed 750 rpm, cell temperature 25 °C, 2 injections of 10 μL each.
OMPDC with OMP: 20 μM OMPDC, 1 mM OMP, buffer (HEPES 0.02 M, pH 7.4), reference power ITC 8 μcal/s, stirring speed 750 rpm, cell temperature 25 °C, 2 injections of 10 μL each.
The data sets were evaluated via Microsoft Excel, and the decarboxylation rates were fitted in OriginPro 2020 according to the Hill equation.

For experiment [4], the target named is T2, OMPDC Thr321Asn. Put plainly: Kinetic ITC with OMPDC variant Thr321Asn. Type of experiment: biochemical. How it is done:
For steady-state kinetic analysis, 20 μM OMPDC and 1 mM OMP were used at a cell temperature of 25 °C. The reference power was set to 8 μcal/s, the stirring power to 750 rpm, and two injections of 10 μL each were performed. For competitive inhibition studies, the substrate concentration remained the same while the ligand concentration was varied.

The target of experiment [5] is T1, human OMPDC. The experiment is described as follows: X-ray crystallography, soaking / cocrystallization of ligands. The settings on record: wild-type, in crystallo. How it is done: OMPDC crystals were grown for at least 3 days at 20 °C using the hanging drop diffusion method with Crystalgen SuperClear Plates (Jena Bioscience) as previously described. , The crystals were gradually transferred to increasing concentrations of cryo-solution (100 mM Tris/HCl pH 8.0, 2 M (NH4)2SO4, 10 mM glutathione pH 8.0, 0.25–1 M L-proline). After the crystals were adjusted to 1 M L-proline cryo-solution, various ligands were used for soaking experiments. […] The crystals were flash-cooled in liquid nitrogen and stored at these temperatures until the diffraction experiments were conducted.
OMPDC was also cocrystallized with XMP, UMP, and GMP. For this, a final protein concentration of 4.5 mg/mL and 25 mM ligand were used in 20 mM HEPES/NaOH, pH 7.4. The solution was mixed in a 1 + 1 ratio with the reservoir solution. Plates were stored at 20 °C, and crystals grew overnight. After 1 week, crystals were transferred to cryo-solution supplemented with 25 mM XMP/UMP/GMP. The cocrystallized crystals were flash-cooled in liquid nitrogen and stored until use.
The structures of OMPDC with the different ligands were determined by processing the diffraction data with the XDS program suite. […]

Setting [6] is: ITC at 25 °C, wild-type, first of two dissociation constants (Sedphat analysis), read-out: K D1.
[7] abbreviates: ITC at 25 °C, wild-type, second of two dissociation constants (Sedphat analysis), read-out: K D2.
Where [8] appears, read: ITC at 25 °C, 20 mM HEPES pH 7.4, wild-type, single dissociation constant, read-out: K D.

Values joined by “and” are separate entries in the source; they are usually repeats but may differ in a detail not shown here. Identical values can stand only once. “Also recorded” adds a separate entry of the source. Like-named read-outs stand apart in the source and are kept apart here.

In the case of `O=c1ccn([C@@H]2O[C@H](COP(=O)(O)O)[C@@H](O)[C@H]2O)c(=O)[nH]1` [UMP, uridine 5′-monophosphate], on human OMPDC [1] (ITC at 25 °C, wild-type), the “n (stoichiometry)” value was found to be 0.98 ± 0.01. The “ΔH (first binding phase, K D1)” value at human OMPDC [1] (ITC at 25 °C, wild-type) is on record as “–1.03 ± 0.06 kcal/mol”. The “ΔH (second binding phase, K D2)” value on human OMPDC [1] (ITC at 25 °C, wild-type) is recorded as “–2.1 ± 0.1 kcal/mol”. Moreover, the Kd at human OMPDC [1] (setting [6]) came to 2600 ± 1200 nM; on human OMPDC [1] (setting [7]) it was 6700 ± 800 nM; at human OMPDC [1] (ITC, wild-type, second of two dissociation constants, read-out: Dissociation constant KD2), 6730 nM.

In the case of `Cc1cn([C@H]2C[C@H](O)[C@@H](COP(=O)(O)O)O2)c(=O)[nH]c1=O` [dTMP, thymidine-5′-monophosphate], the Kd at human OMPDC [1] (setting [8]) came to 119000 nM; on human OMPDC [1] (ITC at 25 °C, wild-type, single dissociation constant, read-out: Dissociation constant (KD)) it was 118000 nM; at OMPDC Thr321Asn [2] (ITC) it was 431 ± 44 nM; on OMPDC Thr321Asn [2] (ITC at 25 °C), 430 ± 40 nM. The “n (stoichiometry)” value on human OMPDC [1] (ITC at 25 °C, wild-type) came out at 0.64 ± 0.03; at OMPDC Thr321Asn [2] (ITC at 25 °C), 0.64 ± 0.02. For the same compound, the ΔG result on human OMPDC [1] (ITC at 25 °C, wild-type) is given as “–5.37 ± 0.09 kcal/mol”; at OMPDC Thr321Asn [2] (ITC at 25 °C), “–8.69 ± 0.08 kcal/mol”. Moreover, the ΔH entry is “–4.74 ± 0.29 kcal/mol” on human OMPDC [1] (ITC at 25 °C, wild-type) and “–14.3 ± 0.1 kcal/mol” at OMPDC Thr321Asn [2] (ITC at 25 °C). Besides, the “–TΔS” value on human OMPDC [1] (ITC at 25 °C, wild-type) is reported as “–0.63 ± 0.88 kcal/mol”; at OMPDC Thr321Asn [2] (ITC at 25 °C) it was 5.60 ± 0.06 kcal/mol.

For the compound `Nc1ccn([C@@H]2O[C@H](COP(=O)(O)O)[C@@H](O)[C@H]2O)c(=O)n1` [CMP, cytidine-5′-monophosphate], on human OMPDC [1] (ITC at 25 °C, wild-type), the “ΔH (first binding phase, K D1)” value was “–2.30 ± 0.08 kcal/mol” and the “ΔH (second binding phase, K D2)” value was “–7.08 ± 0.56 kcal/mol”. In addition, the Kd at human OMPDC [1] (setting [6]) was 4730 ± 1090 nM. The Kd at human OMPDC [1] (setting [7]) worked out at 8330 ± 1060 nM.

Consider `O=c1ccn([C@H]2C[C@H](O)[C@@H](COP(=O)(O)O)O2)c(=O)[nH]1` [2′-deoxy UMP, 2′-deoxy uridine 5′-monophosphate], for which the “binding detected by thermodynamic ITC” value on human OMPDC [1] (wild-type) is recorded as “no binding”; on human OMPDC [1] (wild-type, listed as deoxy UMP), “No binding could be detected”.

For the compound `O=C(O)c1cc(=O)[nH]c(=O)n1[C@H]1C[C@H](O)[C@@H](COP(=O)(O)O)O1` [2′-deoxy OMP], the enzymatic turnover entry at human OMPDC [3] is “no binding or turnover was detected”. Besides, the enzymatic activity entry on OMPDC Thr321Asn [4] is recorded as “too low to be reliably measured”. Besides, on human OMPDC [5], the “ligand bound in crystal structure” value is “does not bind”.

`O=c1[nH]c(=O)c2ncn([C@@H]3O[C@H](COP(=O)(O)O)[C@@H](O)[C@H]3O)c2[nH]1` [XMP, xanthosine-5′-monophosphate]: the “ΔH (first binding phase, K D1)” value on human OMPDC [1] (ITC at 25 °C, wild-type) is given as “–1.86 ± 0.10 kcal/mol”. The “ΔH (second binding phase, K D2)” value on human OMPDC [1] (ITC at 25 °C, wild-type) was “–5.57 ± 0.07 kcal/mol”. In addition, the Kd on human OMPDC [1] (setting [6]) was found to be 210 ± 30 nM; at human OMPDC [1] (setting [7]), 180 ± 20 nM; on human OMPDC [1] (ITC, wild-type, first of two dissociation constants, read-out: Dissociation constant KD1), 213 nM; on human OMPDC [1] (ITC, wild-type, second of two dissociation constants, read-out: K D2), 182 ± 18 nM.

With `Nc1nc2c(ncn2[C@@H]2O[C@H](COP(=O)(O)O)[C@@H](O)[C@H]2O)c(=O)[nH]1` [GMP, guanosine-5′-monophosphate], at human OMPDC [1] (wild-type), the “binding detected by thermodynamic ITC” value was “No binding could be detected; also recorded: no measurable binding heat was detected; also recorded: did not bind at all”. Moreover, on human OMPDC [5], the “ligand bound in crystal structure” value was “no ligand was bound to the active site”.

Regarding `Cc1c(C(=O)O)n(C2OC(COP(=O)(O)O)C(O)C2O)c(=O)[nH]c1=O` (centres unmarked) [5-MeOMP, 5-methyl OMP], on human OMPDC [1] (setting [8]), the Kd was 404 nM and 400 nM. Besides, on human OMPDC [1] (ITC at 25 °C, wild-type), the “n (stoichiometry)” value worked out at 1.54 ± 0.01, the ΔG entry is reported as “–8.78 ± 0.19 kcal/mol”, the ΔH result is listed as “–1.20 ± 0.03 kcal/mol” and the “–TΔS” value was “–7.58 ± 0.26 kcal/mol”. Further, at human OMPDC [3], the enzymatic turnover entry was “unable to detect enzymatic turnover”.
